In patent US8673919B2, “Dihydropyridin sulfonamides and dihydropyridin sulfamides as MEK inhibitors” (Ardea Biosciences, Inc., priority 2009, dated 2014) one finds IC50 data, which are given here for ten compounds.

The test system of one experiment is HCT116 cells. As to the kind of experiment: HCT116 Cell Titer Glo (CTG) Proliferation Assay. Conditions: HCT116 human colorectal cells. The format is cell-based. The procedure: (§1) HCT116 cells [human colorectal cell line, expressing […]] were plated at a density of 3000 cells/well in 96 well black-clear bottom tissue culture plates (Costar 3603 black/clear bottom) in 100 μl/well DMEM medium (DMEM/Ham's F12) with 10% Fetal Bovine Serum (FBS) and stable Glutamine incubated at 37° C. Sister wells were plated in separate plate for time zero determination. All plates were incubated overnight at 37° C. Take down time zero plate: 100 μl/well CTG solution (Promega Cell Titer Glo solution) were added to time zero wells in sister plate; the plates were mixed for 2 min on orbital shaker to ensure cell lysis, incubated for 10 minutes, luminescence was read on VICTOR3 (Perkin Elmer). Twenty-four hours after cell seeding, test compounds were diluted in 50 μl medium and were added at a final concentration range from as high 10 μM to as low […] depending on the activities of the tested compounds in serial dilutions at a final DMSO concentration of 0.4%. Cells were incubated for 72 hours at 37° C. after addition of the test compound. Then, using a Promega Cell Titer Glo Luminescent® assay kit, 100 μl microliter lysis buffer containing of the enzyme luciferase and its substrate, luciferin mixture, were added to each well and incubated for 10 min at room temperature in the dark to stabilize luminescence signal. The samples were read on VICTOR3 (Perkin Elmer) using Luminescence protocol. The percentage change in cell growth was calculated by normalizing the measurements to the extinctions of the zero point plate (=0%) and the extinction of the untreated (0 μM) cells (=100%). The IC50 values were determined by means of a 4-parameter fit using the company's own software.

The subject of another experiment is A549 cells. As to the kind of experiment: A549 Cell Titer Glo (CTG) Proliferation Assay. Type of experiment: cell-based. Conditions: A549 human non small cell lung cancer cells, mutant K-Ras G12S. The protocol: as §1
A549 cells [human non small cell lung cancer cell line, expressing mutant K-Ras G12S] were seeded at a density of 2000 cells/well in 96 well black-clear bottom tissue culture plates (Costar 3603 black/clear bottom) in 100 μl/well DMEM medium (DMEM/Ham's F12) with 10% Fetal Bovine Serum (FBS) and stable Glutamine incubated at 37° C. Cell Titer Glo proliferation assays for A549 cells were performed with the same protocol as described afore for HCT116 cells.

The test system of a further experiment is A375 cells. As to the kind of experiment: A375 Crystal Violet (CV) Proliferation Assay. Type of experiment: cell-based. The settings on record: A375 human melanoma cells, mutant BRAF V600E, crystal violet staining, 4 days. The protocol: Cell proliferation for A375 cells [human melanoma cell line, expressing mutant BRAF V600E] was measured by crystal violet (CV) staining: Cultivated human A375 cells were plated out in a density of 1500 cells/measurement point in 200 μl of growth medium (DMEM/HAMS F12 with 10% FBS and 2 mM Glutamine) in a 96-well multititer plate. After 24 hours, the cells from a plate (zero plate) were stained with crystal violet (see below), while the medium in the other plates was replaced by fresh culture medium (200 μl) to which the test substances had been added in various concentrations (0 μM, and in the range 0.3 nM-30 μM; the final concentration of the solvent dimethyl sulphoxide was 0.5%). The cells were incubated in the presence of the test substances for 4 days. The cell proliferation was determined by staining the cells with crystal violet: the cells were fixed by adding 20 μl/measurement point of an 11% glutaraldehyde solution at room temperature for 15 min. After the fixed cells had been washed three times with water, the plates were dried at room temperature. The cells were stained by adding 100 μl/measurement point of a 0.1% crystal violet solution (pH adjusted to pH 3 by adding acetic acid). After the stained cells had been washed three times with water, the plates were dried at room temperature. The dye was dissolved by adding 100 μl/measurement point of a 10% acetic acid solution, and the extinction was determined by photometry at a wavelength of 595 nm. The percentage change in cell growth was calculated by normalizing the measurements to the extinctions of the zero point plate (=0%) and the extinction of the untreated (0 μM) cells (=100%). The IC50 values were determined by means of a 4-parameter fit using the company's own software.

The target of the next experiment is T1, MEK1 (Homo sapiens, UniProt Q02750).
T1 construct: purchased Millipore 14-420
T1 sequence (Q02750 whole entry): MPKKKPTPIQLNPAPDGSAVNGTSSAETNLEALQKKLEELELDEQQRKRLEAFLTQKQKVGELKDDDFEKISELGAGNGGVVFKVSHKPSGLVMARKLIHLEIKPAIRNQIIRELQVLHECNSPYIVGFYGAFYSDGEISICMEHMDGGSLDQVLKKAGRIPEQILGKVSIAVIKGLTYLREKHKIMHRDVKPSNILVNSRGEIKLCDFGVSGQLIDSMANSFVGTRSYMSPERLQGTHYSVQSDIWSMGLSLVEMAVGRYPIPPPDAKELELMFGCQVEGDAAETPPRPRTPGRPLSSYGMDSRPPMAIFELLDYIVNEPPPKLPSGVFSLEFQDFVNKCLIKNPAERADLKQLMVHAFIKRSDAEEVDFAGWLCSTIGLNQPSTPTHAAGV
As to the kind of experiment: MEK1 Activation Kinase Assay (HTRF; Cot1 phosphorylation of GST-MEK1). The format is biochemical. The settings on record: activation of GST-MEK1 by Cot1, HTRF, 10 min pre-incubation, 20 min reaction at 22° C. The text has this:
The kinase Cot1 activates MEK1 by phosphorylating its activation loop. The inhibitory activity of compounds of the present invention on this activation of MEK1 was quantified employing the HTRF assay described in the following paragraphs.
N-terminally His6-tagged recombinant kinase domain of the human Cot1 (amino acids 30-397, purchased from Millipore, cat. no 14-703) expressed in insect cells (SF21) and purified by Ni-NTA affinity chromatography was used as kinase. As substrate for the kinase reaction the unactive C-terminally His6-tagged GST-MEK1 fusion protein (Millipore cat. no 14-420) was used.
For the assay 50 nl of a 100 fold concentrated solution of the test compound in DMSO was pipetted into a black low volume 384 well microtiter plate (Greiner Bio-One, Frickenhausen, Germany), 3 μl of a solution of 24 nM GST-MEK1 and 166.7 μM adenosine-tri-phosphate (ATP) in assay buffer [50 mM Tris/HCl pH 7.5, 10 mM MgCl2, 2 mM dithiothreitol, 0.01% (v/v) Igepal CA 630 (Sigma), 5 mM β-phospho-glycerol] were added and the mixture was incubated for 10 min at 22° C. to allow pre-binding of the test compounds to the GST-MEK1 before the start of the kinase reaction. Then the kinase reaction was started by the addition of 2 μl of a solution of Cot1 in assay buffer and the resulting mixture was incubated for a reaction time of 20 min at 22° C. The concentration of Cot1 in the assay was adjusted depending of the activity of the enzyme lot and was chosen appropriate to have the assay in the linear range, typical enzyme concentrations were in the range of about 2 ng/μl (final conc. in the 5 μl assay volume). The reaction was stopped by the addition of 5 μl of a solution of HTRF detection reagents (13 nM anti GST-XL665 [#61 GSTXLB, Fa. Cis Biointernational, Marcoule, France], 1 nM Eu-cryptate labelled anti-phospho-MEK 1/2 (Ser217/221) [#61P17KAZ, Fa. Cis Biointernational],) in an aqueous EDTA-solution (100 mM EDTA, 500 mM KF, 0.2% (w/v) bovine serum albumin in 100 mM HEPES/NaOH pH 7.5).
The resulting mixture was incubated 2 h at 22° C. to allow the binding of the phosphorylated GST-MEK1 to the anti-GST-XL665 and the Eu-cryptate labelled anti-phospho-MEK 1/2 antibody. Subsequently the amount of Ser217/Ser221-phosphorylated substrate was evaluated by measurement of the resonance is energy transfer from the Eu-Cryptate-labelled anti-phospho-MEK antibody to the anti-GST-XL665. Therefore, the fluorescence emissions at 620 nm and 665 nm after excitation at 350 nm was measured in a HTRF reader, e.g. a Rubystar (BMG Labtechnologies, Offenburg, Germany) or a Viewlux (Perkin-Elmer). The ratio of the emissions at 665 nm and at […] was taken as the measure for the amount of phosphorylated substrate. The data were normalised (enzyme reaction without inhibitor=0% inhibition, all other assay components but no enzyme=100% inhibition).

`Cn1c(Nc2ccc(I)cc2F)c(NS(=O)(=O)C2(CC(O)CO)CC2)ccc1=O` (single isomer, unassigned) [Example 6B, 1-(2,3-dihydroxypropyl)-N-{2-[(2-fluoro-4-iodophenyl)amino]-1-methyl-6-oxo-1,6-dihydropyridin-3-yl}cyclopropanesulfonamide]: the IC50 with HCT116 cells (72 hours) is 54.5 nM; in the experiment with A549 cells (72 hours) it was 203 nM; in the experiment with A375 cells, 7.74 nM; against MEK1, 16.6 nM.
Take `Cn1c(Nc2ccc(I)cc2F)c(NS(=O)(=O)C2CC2)cc(F)c1=O` [Example 8, N-{5-fluoro-2-[(2-fluoro-4-iodophenyl)amino]-1-methyl-6-oxo-1,6-dihydropyridin-3-yl}cyclopropanesulfonamide]: the 50% inhibitory concentration (IC50) in the experiment with HCT116 cells (Homo sapiens, HCT-116, 72 h) worked out at 590 nM; with A549 cells (Homo sapiens, A549, 72 h), 930 nM; in the experiment on A375 cells (Homo sapiens, A-375, 96 h) it was 26.6 nM; against MEK1, 15.3 nM.
On to `Cn1c(Nc2ccc(I)cc2F)c(NS(=O)(=O)C2(CC(O)CO)CC2)cc(F)c1=O` (racemic) [Example 9, 1-(2,3-dihydroxypropyl)-N-{5-fluoro-2-[(2-fluoro-4-iodophenyl)amino]-1-methyl-6-oxo-1,6-dihydropyridin-3-yl}cyclopropanesulfonamide], for which the IC50 in the experiment on HCT116 cells (Homo sapiens, HCT-116, 72 h) was found to be 300 nM; in the experiment with A549 cells (Homo sapiens, A549, 72 h), 700 nM; in the experiment with A375 cells (Homo sapiens, A-375, 96 h), 25.5 nM; on MEK1, 21.1 nM.
`Cc1cc(NS(=O)(=O)C2CC2)c(Nc2ccc(I)cc2F)n(C)c1=O` [Example 1, N-(2-(2-fluoro-4-iodophenylamino)-1,5-dimethyl-6-oxo-1,6-dihydropyridin-3-yl) cyclopropanesulfonamide] registered an IC50 against MEK1 of 12.1 nM.
As to `Cc1cc(NS(=O)(=O)C2(CCO)CC2)c(Nc2ccc(I)cc2F)n(C)c1=O` [Example 3, N-(2-(2-fluoro-4-iodophenylamino)-1,5-dimethyl-6-oxo-1,6-dihydropyridin-3-yl)-1-(2-hydroxyethyl)cyclopropane-1-sulfonamide], the IC50 is 15 nM with A375 cells (Homo sapiens, A-375, 96 h) and 8.97 nM at MEK1.
Take `Cn1c(Nc2ccc(I)cc2F)c(NS(=O)(=O)C2(CCO)CC2)ccc1=O` [Example 7, N-{2-[(2-fluoro-4-iodophenyl)amino]-1-methyl-6-oxo-1,6-dihydropyridin-3-yl}-1-(2-hydroxyethyl)cyclopropanesulfonamide]: the IC50 in the experiment on HCT116 cells (Homo sapiens, HCT-116, 72 h) amounted to 117 nM; in the experiment on A549 cells (Homo sapiens, A549, 72 h) it was 254 nM; with A375 cells (Homo sapiens, A-375, 96 h) it was 4.7 nM; on MEK1 it was 8.36 nM.
The corresponding values for `Cn1c(Nc2ccc(I)cc2F)c(NS(=O)(=O)C2(CCO)CC2)cc(F)c1=O` [Example 10, N-{5-fluoro-2-[(2-fluoro-4-iodophenyl)amino]-1-methyl-6-oxo-1,6-dihydropyridin-3-yl}-1-(2-hydroxyethyl)cyclopropanesulfonamide] are 360 nM, 730 nM, 22.9 nM and 38.2 nM.
Take `Cc1cc(NS(=O)(=O)C2(CC(O)CO)CC2)c(Nc2ccc(I)cc2F)n(C)c1=O` (racemic) [Example 2, 1-(2,3-dihydroxypropyl)-N-(2-(2-fluoro-4-iodophenylamino)-1,5-dimethyl-6-oxo-1,6-dihydropyridin-3-yl)cyclopropane-1-sulfonamide]: the IC50 in the experiment with A375 cells (Homo sapiens, A-375, 96 h) came out at 17 nM; on MEK1, 11.5 nM.
Turning to `Cn1c(Nc2ccc(I)cc2F)c(NS(=O)(=O)C2(CC(O)CO)CC2)ccc1=O` (single isomer, unassigned) [Example 6A, 1-(2,3-dihydroxypropyl)-N-{2-[(2-fluoro-4-iodophenyl)amino]-1-methyl-6-oxo-1,6-dihydropyridin-3-yl}cyclopropanesulfonamide], the IC50 in the experiment on HCT116 cells (72 hours) came out at 119 nM; with A549 cells (72 hours) it was 481 nM; in the experiment with A375 cells it was 17.8 nM; against MEK1 it was 10.4 nM.
`Cn1c(Nc2ccc(I)cc2F)c(NS(=O)(=O)C2CC2)ccc1=O` [Example 5, N-{2-[(2-fluoro-4-iodophenyl)amino]-1-methyl-6-oxo-1,6-dihydropyridin-3-yl}cyclopropanesulfonamide]: the IC50 in the experiment on HCT116 cells (Homo sapiens, HCT-116, 72 h) worked out at 90.1 nM; with A549 cells (Homo sapiens, A549, 72 h), 206 nM; in the experiment with A375 cells (Homo sapiens, A-375, 96 h) it was 2.94 nM; against MEK1, 9.9 nM.
